For this assay, the target named is T1, 17-beta-hydroxysteroid dehydrogenase type 1 (Homo sapiens, UniProt P14061).
T1 sequence (P14061 whole entry): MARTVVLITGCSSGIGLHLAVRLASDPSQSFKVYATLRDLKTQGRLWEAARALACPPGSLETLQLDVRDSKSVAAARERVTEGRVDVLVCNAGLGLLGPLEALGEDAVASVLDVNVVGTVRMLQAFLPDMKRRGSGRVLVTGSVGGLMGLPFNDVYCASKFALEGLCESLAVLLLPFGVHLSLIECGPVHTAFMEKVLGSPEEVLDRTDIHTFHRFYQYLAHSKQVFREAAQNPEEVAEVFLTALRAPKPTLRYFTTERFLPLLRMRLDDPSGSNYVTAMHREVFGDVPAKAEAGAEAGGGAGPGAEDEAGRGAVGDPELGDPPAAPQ

pIC50: −log10 of the molar value.

As a reminder, the pIC50 is −log10 of the IC50, conventionally taken in molar units. `O=C(c1cccc(O)c1)c1ccc(-c2cccc(O)c2)s1` had a pIC50 of 7.16. With `Cc1ccc(C(=O)c2ccc(-c3cccc(O)c3)s2)cc1O`, the pIC50 was 7.34. Turning to `N#Cc1cccc(S(=O)(=O)Nc2cccc(-c3c(O)ccc4cc(-c5cccc(O)c5)ccc34)c2)c1`, the negative-log IC50 (pIC50) is 7.68. To `O=C(c1ccc(F)c(O)c1)c1cc2cc(O)ccc2s1` belongs 7.05; to `O=C(c1cccc(O)c1)c1ccc(-c2ccc(NS(=O)(=O)c3ccc(Br)cc3OC(F)(F)F)cc2)s1`, 6.77.

With `N#Cc1cccc(S(=O)(=O)Nc2cccc(-c3ccc(C(=O)c4cccc(O)c4)s3)c2)c1`, the negative-log IC50 (pIC50) was 7.64. `O=C(Nc1cccc(-c2ccc(C(=O)c3cccc(O)c3)s2)c1)c1cccc(O)c1` gave a negative logarithm of the IC50 (pIC50) of 7.48. To `N#Cc1ccc(S(=O)(=O)Nc2cccc(-c3ccc(C(=O)c4cccc(O)c4)s3)c2)cc1` belongs 7.25; to `COc1cccc(S(=O)(=O)Nc2cccc(-c3ccc(C(=O)c4cccc(O)c4)s3)c2)c1`, 7.46. On to `Cc1ccccc1S(=O)(=O)Nc1cccc(-c2ccc(C(=O)c3cccc(O)c3)s2)c1`, for which the pIC50 is 7.77. Turning to `Cc1ccc(S(=O)(=O)Nc2cccc(-c3ccc(C(=O)c4cccc(O)c4)s3)c2)cc1`, the negative logarithm of the IC50 (pIC50) is 7.92.

In turn, `O=C(c1ccc(C(F)(F)F)c(O)c1)c1ccc(-c2cccc(O)c2)s1` showed a pIC50 of 7.42. `O=C(c1cccc(O)c1)c1cc2ccc(O)cc2s1`: the pIC50 is 7.92. This pIC50 is 0.50 log units higher than that of the compound before.

Source of the values: ChEMBL document CHEMBL3627664, “Towards the evaluation in an animal disease model: Fluorinated 17β-HSD1 inhibitors showing strong activity towards both the human and the rat enzyme” (Eur J Med Chem, 2015).
